Assay results from ChEMBL document CHEMBL4507287, “Data for DCP probe MRL-650” (2021).

Tests used:
[1] = molecular target: Tyrosine-protein kinase ABL2 (Homo sapiens) (UniProt P42684); conditions: Compound concentration 1000.0 nM
[2] = molecular target: Activin receptor type-1 (Homo sapiens) (UniProt Q04771); conditions: Compound concentration 1000.0 nM
[3] = test system: ALK tyrosine kinase receptor (Homo sapiens), Q9UM73 [L1196M]; conditions: Compound concentration 1000.0 nM
[4] = molecular target: 5'-AMP-activated protein kinase catalytic subunit alpha-2 (Homo sapiens) (UniProt P54646); conditions: Compound concentration 1000.0 nM
[5] = molecular target: Aurora kinase C (Homo sapiens) (UniProt Q9UQB9); conditions: Compound concentration 1000.0 nM
[6] = molecular target: Serine/threonine-protein kinase BRSK2 (Homo sapiens) (UniProt Q8IWQ3); conditions: Compound concentration 1000.0 nM
[7] = molecular target: Calcium/calmodulin-dependent protein kinase type 1B (Homo sapiens) (UniProt Q6P2M8); conditions: Compound concentration 1000.0 nM
[8] = molecular target: Calcium/calmodulin-dependent protein kinase type 1G (Homo sapiens) (UniProt Q96NX5); conditions: Compound concentration 1000.0 nM
[9] = molecular target: Calcium/calmodulin-dependent protein kinase type IV (Homo sapiens) (UniProt Q16566); conditions: Compound concentration 1000.0 nM
[10] = molecular target: Cyclin-dependent kinase-like 3 (Homo sapiens) (UniProt Q8IVW4); conditions: Compound concentration 1000.0 nM
[11] = molecular target: Dual specificity protein kinase CLK3 (Homo sapiens) (UniProt P49761); conditions: Compound concentration 1000.0 nM
[12] = test system: Epidermal growth factor receptor (Homo sapiens), P00533 [UNDEFINED MUTATION]; conditions: Compound concentration 1000.0 nM
[13] = molecular target: Ephrin type-A receptor 3 (Homo sapiens) (UniProt P29320); conditions: Compound concentration 1000.0 nM
[14] = molecular target: Receptor tyrosine-protein kinase erbB-2 (Homo sapiens) (UniProt P04626); conditions: Compound concentration 1000.0 nM
[15] = molecular target: Mitogen-activated protein kinase 3 (Homo sapiens) (UniProt P27361); conditions: Compound concentration 1000.0 nM
Sequence of Mitogen-activated protein kinase 3 (Homo sapiens) (P27361 whole entry): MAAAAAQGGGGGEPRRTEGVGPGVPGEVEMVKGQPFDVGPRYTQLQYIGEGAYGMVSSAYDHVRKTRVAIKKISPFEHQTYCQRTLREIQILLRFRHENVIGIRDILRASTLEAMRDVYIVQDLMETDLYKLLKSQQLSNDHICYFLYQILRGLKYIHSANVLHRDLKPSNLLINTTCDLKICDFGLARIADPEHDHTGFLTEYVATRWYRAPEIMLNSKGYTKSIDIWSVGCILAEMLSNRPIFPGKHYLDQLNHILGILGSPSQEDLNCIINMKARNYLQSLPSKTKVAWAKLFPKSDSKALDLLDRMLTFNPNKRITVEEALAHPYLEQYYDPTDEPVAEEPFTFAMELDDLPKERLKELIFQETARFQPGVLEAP

[16] = molecular target: Serine/threonine-protein kinase/endoribonuclease IRE1 (Homo sapiens) (UniProt O75460); conditions: Compound concentration 1000.0 nM
[17] = molecular target: Tyrosine-protein kinase FRK (Homo sapiens) (UniProt P42685); conditions: Compound concentration 1000.0 nM
Sequence of Tyrosine-protein kinase FRK (Homo sapiens) (P42685 whole entry): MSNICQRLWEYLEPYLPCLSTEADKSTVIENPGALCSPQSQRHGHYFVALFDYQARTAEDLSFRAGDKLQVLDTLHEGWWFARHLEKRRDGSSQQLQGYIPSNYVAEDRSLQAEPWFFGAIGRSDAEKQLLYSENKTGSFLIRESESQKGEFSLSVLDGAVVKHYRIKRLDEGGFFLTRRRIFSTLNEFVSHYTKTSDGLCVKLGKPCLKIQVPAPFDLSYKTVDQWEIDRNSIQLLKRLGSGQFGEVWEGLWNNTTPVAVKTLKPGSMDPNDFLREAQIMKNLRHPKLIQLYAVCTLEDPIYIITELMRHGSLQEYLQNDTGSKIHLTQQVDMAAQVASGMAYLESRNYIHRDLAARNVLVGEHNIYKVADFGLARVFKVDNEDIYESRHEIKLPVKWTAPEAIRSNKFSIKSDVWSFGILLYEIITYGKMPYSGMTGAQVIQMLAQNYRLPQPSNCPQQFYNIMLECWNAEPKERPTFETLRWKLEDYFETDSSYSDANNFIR

[18] = molecular target: Rhodopsin kinase GRK7 (Homo sapiens) (UniProt Q8WTQ7); conditions: Compound concentration 1000.0 nM
[19] = test system: Mast/stem cell growth factor receptor Kit (Homo sapiens), P10721 [V559D]; conditions: Compound concentration 1000.0 nM
[20] = test system: Leucine-rich repeat serine/threonine-protein kinase 2 (Homo sapiens), Q5S007 [G2019S]; conditions: Compound concentration 1000.0 nM
[21] = molecular target: Mitogen-activated protein kinase kinase kinase 13 (Homo sapiens) (UniProt O43283); conditions: Compound concentration 1000.0 nM
[22] = molecular target: Mitogen-activated protein kinase kinase kinase kinase 4 (Homo sapiens) (UniProt O95819); conditions: Compound concentration 1000.0 nM
[23] = molecular target: Tyrosine-protein kinase Mer (Homo sapiens) (UniProt Q12866); conditions: Compound concentration 1000.0 nM
[24] = molecular target: MAP kinase-interacting serine/threonine-protein kinase 2 (Homo sapiens) (UniProt Q9HBH9); conditions: Compound concentration 1000.0 nM
[25] = molecular target: Serine/threonine-protein kinase MRCK alpha (Homo sapiens) (UniProt Q5VT25); conditions: Compound concentration 1000.0 nM
[26] = molecular target: Myosin-IIIb (Homo sapiens) (UniProt Q8WXR4); conditions: Compound concentration 1000.0 nM
[27] = molecular target: Serine/threonine-protein kinase Nek7 (Homo sapiens) (UniProt Q8TDX7); conditions: Compound concentration 1000.0 nM
[28] = test system: Phosphatidylinositol 4,5-bisphosphate 3-kinase catalytic subunit alpha isoform (Homo sapiens), P42336 [C420R]; conditions: Compound concentration 1000.0 nM
[29] = molecular target: Phosphatidylinositol 4-kinase beta (Homo sapiens) (UniProt Q9UBF8); conditions: Compound concentration 1000.0 nM
[30] = molecular target: Membrane-associated tyrosine- and threonine-specific cdc2-inhibitory kinase (Homo sapiens) (UniProt Q99640); conditions: Compound concentration 1000.0 nM
Sequence of Membrane-associated tyrosine- and threonine-specific cdc2-inhibitory kinase (Homo sapiens) (Q99640 whole entry): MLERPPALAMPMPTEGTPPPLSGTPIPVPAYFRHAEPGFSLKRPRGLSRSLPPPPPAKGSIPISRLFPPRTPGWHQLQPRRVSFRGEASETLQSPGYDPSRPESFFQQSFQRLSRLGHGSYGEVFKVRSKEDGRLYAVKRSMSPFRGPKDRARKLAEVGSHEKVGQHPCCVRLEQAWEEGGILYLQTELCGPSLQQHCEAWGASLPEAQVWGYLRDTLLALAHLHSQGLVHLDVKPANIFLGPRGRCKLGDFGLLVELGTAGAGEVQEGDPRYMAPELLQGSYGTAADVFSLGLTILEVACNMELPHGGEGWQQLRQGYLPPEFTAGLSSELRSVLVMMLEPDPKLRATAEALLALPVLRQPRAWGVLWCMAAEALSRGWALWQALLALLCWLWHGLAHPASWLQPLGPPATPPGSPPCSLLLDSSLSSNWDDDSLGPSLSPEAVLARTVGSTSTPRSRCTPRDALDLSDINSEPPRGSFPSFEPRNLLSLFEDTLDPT

[31] = molecular target: Serine/threonine-protein kinase N1 (Homo sapiens) (UniProt Q16512); conditions: Compound concentration 1000.0 nM
[32] = molecular target: Dual serine/threonine and tyrosine protein kinase (Homo sapiens) (UniProt Q6XUX3); conditions: Compound concentration 1000.0 nM
[33] = molecular target: Ribosomal protein S6 kinase alpha-4 (Homo sapiens) (UniProt O75676); conditions: Compound concentration 1000.0 nM
[34] = molecular target: Ribosomal protein S6 kinase alpha-1 (Homo sapiens) (UniProt Q15418); conditions: Compound concentration 1000.0 nM
[35] = molecular target: SNF-related serine/threonine-protein kinase (Homo sapiens) (UniProt Q9NRH2); conditions: Compound concentration 1000.0 nM
[36] = molecular target: Serine/threonine-protein kinase 36 (Homo sapiens) (UniProt Q9NRP7); conditions: Compound concentration 1000.0 nM
[37] = molecular target: Serine/threonine-protein kinase TAO1 (Homo sapiens) (UniProt Q7L7X3); conditions: Compound concentration 1000.0 nM
Sequence of Serine/threonine-protein kinase TAO1 (Homo sapiens) (Q7L7X3 whole entry): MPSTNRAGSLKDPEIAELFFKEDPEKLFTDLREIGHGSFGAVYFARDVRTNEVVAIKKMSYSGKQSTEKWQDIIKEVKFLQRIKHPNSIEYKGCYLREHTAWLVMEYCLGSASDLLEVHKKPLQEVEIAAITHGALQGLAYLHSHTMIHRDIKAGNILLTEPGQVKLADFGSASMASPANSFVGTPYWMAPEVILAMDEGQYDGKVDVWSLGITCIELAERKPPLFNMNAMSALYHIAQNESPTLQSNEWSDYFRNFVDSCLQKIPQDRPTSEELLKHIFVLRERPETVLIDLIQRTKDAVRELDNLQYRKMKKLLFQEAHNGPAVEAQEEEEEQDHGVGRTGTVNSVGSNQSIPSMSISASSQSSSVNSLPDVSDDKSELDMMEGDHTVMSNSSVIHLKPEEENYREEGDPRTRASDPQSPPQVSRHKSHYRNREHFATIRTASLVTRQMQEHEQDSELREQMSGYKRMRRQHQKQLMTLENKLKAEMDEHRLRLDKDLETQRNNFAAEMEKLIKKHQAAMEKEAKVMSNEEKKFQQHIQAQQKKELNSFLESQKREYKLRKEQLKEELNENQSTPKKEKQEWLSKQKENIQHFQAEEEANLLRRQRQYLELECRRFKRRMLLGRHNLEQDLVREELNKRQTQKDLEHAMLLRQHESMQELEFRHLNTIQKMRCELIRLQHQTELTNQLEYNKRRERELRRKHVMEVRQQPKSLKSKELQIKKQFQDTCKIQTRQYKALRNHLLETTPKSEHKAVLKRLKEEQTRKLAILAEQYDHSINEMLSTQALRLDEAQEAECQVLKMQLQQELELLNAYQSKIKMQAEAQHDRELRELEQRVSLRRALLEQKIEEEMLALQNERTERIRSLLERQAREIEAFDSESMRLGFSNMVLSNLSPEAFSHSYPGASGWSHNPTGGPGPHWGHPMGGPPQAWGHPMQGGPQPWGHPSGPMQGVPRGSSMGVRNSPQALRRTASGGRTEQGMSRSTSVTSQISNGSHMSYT

[38] = molecular target: Activated CDC42 kinase 1 (Homo sapiens) (UniProt Q07912); conditions: Compound concentration 1000.0 nM
[39] = molecular target: Transient receptor potential cation channel subfamily M member 6 (Homo sapiens) (UniProt Q9BX84); conditions: Compound concentration 1000.0 nM
Sequence of Transient receptor potential cation channel subfamily M member 6 (Homo sapiens) (Q9BX84 whole entry): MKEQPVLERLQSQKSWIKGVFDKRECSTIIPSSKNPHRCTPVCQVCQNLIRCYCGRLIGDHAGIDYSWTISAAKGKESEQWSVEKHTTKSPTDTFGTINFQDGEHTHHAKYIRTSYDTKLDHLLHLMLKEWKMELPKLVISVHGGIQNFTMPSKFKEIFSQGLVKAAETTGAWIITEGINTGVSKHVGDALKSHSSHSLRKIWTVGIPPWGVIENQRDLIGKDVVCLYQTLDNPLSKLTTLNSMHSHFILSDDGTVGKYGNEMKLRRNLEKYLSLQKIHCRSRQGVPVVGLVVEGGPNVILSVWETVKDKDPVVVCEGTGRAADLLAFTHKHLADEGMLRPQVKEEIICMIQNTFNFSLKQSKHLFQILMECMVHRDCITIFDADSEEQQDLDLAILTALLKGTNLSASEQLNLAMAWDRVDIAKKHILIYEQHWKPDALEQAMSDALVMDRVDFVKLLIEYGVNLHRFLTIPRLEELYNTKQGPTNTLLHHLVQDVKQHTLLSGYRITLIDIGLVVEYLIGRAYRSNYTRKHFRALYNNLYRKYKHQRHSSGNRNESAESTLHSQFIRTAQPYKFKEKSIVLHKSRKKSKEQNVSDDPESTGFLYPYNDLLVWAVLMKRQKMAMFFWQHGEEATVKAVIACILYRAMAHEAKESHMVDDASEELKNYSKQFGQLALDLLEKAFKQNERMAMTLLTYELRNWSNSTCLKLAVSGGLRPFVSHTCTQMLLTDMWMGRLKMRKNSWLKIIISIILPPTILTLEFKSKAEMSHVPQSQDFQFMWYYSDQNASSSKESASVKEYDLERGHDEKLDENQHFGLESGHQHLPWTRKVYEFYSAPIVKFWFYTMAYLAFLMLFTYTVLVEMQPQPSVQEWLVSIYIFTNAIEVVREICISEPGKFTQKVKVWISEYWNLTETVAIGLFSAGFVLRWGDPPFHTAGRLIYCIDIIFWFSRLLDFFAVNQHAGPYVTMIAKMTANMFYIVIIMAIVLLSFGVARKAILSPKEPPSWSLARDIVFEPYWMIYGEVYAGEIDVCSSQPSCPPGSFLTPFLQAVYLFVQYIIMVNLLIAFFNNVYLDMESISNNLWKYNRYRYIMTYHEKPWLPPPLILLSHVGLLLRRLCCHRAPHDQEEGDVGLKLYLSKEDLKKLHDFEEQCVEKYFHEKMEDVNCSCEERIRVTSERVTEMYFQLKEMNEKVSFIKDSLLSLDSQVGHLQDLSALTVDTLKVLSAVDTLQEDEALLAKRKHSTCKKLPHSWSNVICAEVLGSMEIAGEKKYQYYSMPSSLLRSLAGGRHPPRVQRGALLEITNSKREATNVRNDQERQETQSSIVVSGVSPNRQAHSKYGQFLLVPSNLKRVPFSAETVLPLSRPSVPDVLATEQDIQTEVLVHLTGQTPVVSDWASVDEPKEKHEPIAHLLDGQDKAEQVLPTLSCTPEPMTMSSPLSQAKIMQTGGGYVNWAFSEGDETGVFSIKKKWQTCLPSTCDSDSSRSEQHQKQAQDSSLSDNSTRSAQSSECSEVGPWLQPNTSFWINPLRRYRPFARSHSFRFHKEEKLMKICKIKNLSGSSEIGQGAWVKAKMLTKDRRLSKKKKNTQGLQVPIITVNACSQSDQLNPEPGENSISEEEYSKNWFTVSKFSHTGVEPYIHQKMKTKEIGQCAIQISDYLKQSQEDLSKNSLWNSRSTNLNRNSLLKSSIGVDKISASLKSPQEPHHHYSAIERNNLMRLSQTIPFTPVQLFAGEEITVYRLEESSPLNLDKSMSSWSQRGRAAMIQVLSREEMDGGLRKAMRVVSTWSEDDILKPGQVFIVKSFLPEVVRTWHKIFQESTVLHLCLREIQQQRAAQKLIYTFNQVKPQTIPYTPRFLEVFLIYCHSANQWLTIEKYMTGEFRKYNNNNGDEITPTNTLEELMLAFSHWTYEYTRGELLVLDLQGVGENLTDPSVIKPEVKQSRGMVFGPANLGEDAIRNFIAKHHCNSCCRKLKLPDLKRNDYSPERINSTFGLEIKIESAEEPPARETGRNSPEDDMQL

[40] = molecular target: Non-receptor tyrosine-protein kinase TYK2 (Homo sapiens) (UniProt P29597); conditions: Compound concentration 1000.0 nM
[41] = molecular target: Serine/threonine-protein kinase 32B (Homo sapiens) (UniProt Q9NY57); conditions: Compound concentration 1000.0 nM
[42] = molecular target: 5-hydroxytryptamine receptor 2B (Homo sapiens) (UniProt P41595); conditions: Compound concentration 10.0 uM
Sequence of 5-hydroxytryptamine receptor 2B (Homo sapiens) (P41595 whole entry): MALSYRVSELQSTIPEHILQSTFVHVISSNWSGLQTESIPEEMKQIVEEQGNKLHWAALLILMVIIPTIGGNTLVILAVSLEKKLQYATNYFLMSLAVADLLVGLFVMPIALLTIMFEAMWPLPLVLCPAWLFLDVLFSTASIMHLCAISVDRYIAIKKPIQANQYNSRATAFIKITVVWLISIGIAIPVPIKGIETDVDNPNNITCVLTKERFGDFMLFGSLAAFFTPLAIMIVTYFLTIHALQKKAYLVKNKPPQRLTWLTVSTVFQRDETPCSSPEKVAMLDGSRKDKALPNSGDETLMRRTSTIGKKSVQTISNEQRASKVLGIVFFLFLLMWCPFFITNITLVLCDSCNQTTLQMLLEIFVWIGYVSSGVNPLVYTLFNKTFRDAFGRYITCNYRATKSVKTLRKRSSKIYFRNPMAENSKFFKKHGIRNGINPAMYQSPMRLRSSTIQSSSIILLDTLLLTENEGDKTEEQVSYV

[43] = molecular target: Sodium-dependent noradrenaline transporter (Homo sapiens) (UniProt P23975); conditions: Compound concentration 10.0 uM
[44] = molecular target: Alpha-1A adrenergic receptor (Homo sapiens) (UniProt P35348); conditions: Compound concentration 10.0 uM
[45] = molecular target: Sigma intracellular receptor 2 (Homo sapiens, UniProt Q5BJF2); conditions: Compound concentration 10.0 uM
Sequence of Sigma intracellular receptor 2 (Q5BJF2 whole entry): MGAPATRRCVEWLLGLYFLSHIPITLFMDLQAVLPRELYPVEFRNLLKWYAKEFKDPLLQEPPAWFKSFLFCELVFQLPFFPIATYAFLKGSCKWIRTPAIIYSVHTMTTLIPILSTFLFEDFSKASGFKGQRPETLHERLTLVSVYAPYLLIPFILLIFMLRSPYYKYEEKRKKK

CC(=O)Nc1c(C(C)=O)c(=O)n(C)c2nc(-c3ccc(Cl)cc3Cl)c(-c3ccc(Cl)cc3)cc12 [NAPHTHYRIDINONE]
residual activity [1]: 100%
residual activity [2]: 100%
residual activity [3]: 100%
residual activity [4]: 100%
residual activity [5]: 100%
residual activity [6]: 100%
residual activity [7]: 100%
residual activity [8]: 100%
residual activity [9]: 100%
residual activity [10]: 100%
residual activity [11]: 100%
residual activity [12]: 92%
residual activity [13]: 100%
residual activity [14]: 100%
residual activity [15]: 100%
residual activity [16]: 100%
residual activity [17]: 100%
residual activity [18]: 100%
residual activity [19]: 100%
residual activity [20]: 100%
residual activity [21]: 100%
residual activity [22]: 100%
residual activity [23]: 100%
residual activity [24]: 100%
residual activity [25]: 100%
residual activity [26]: 100%
residual activity [27]: 100%
residual activity [28]: 88%
residual activity [29]: 100%
residual activity [30]: 100%
residual activity [31]: 92%
residual activity [32]: 100%
residual activity [33]: 100%
residual activity [34]: 100%
residual activity [35]: 78%
residual activity [36]: 92%
residual activity [37]: 89%
residual activity [38]: 100%
residual activity [39]: 100%
residual activity [40]: 100%
residual activity [41]: 100%
inhibition [42]: 1.6%
inhibition [43]: 15.5%
inhibition [44]: -6.63%
inhibition [45]: 54.6%

CC(=O)c1c(NS(C)(=O)=O)c2cc(-c3ccc(Cl)cc3)c(-c3ccc(Cl)cc3Cl)nc2n(C)c1=O [MRL-CB1-NC]
residual activity [1]: 100%
residual activity [2]: 93%
residual activity [3]: 97%
residual activity [4]: 85%
residual activity [5]: 100%
residual activity [6]: 90%
residual activity [7]: 100%
residual activity [8]: 100%
residual activity [9]: 100%
residual activity [10]: 100%
residual activity [11]: 92%
residual activity [12]: 100%
residual activity [13]: 92%
residual activity [14]: 100%
residual activity [15]: 100%
residual activity [16]: 77%
residual activity [17]: 100%
residual activity [18]: 83%
residual activity [19]: 100%
residual activity [20]: 100%
residual activity [21]: 71%
residual activity [22]: 100%
residual activity [23]: 100%
residual activity [24]: 75%
residual activity [25]: 95%
residual activity [26]: 99%
residual activity [27]: 100%
residual activity [28]: 93%
residual activity [29]: 74%
residual activity [30]: 99%
residual activity [31]: 100%
residual activity [32]: 100%
residual activity [33]: 93%
residual activity [34]: 93%
residual activity [35]: 98%
residual activity [36]: 100%
residual activity [37]: 92%
residual activity [38]: 92%
residual activity [39]: 100%
residual activity [40]: 94%
residual activity [41]: 89%
inhibition [42]: -0.601%
inhibition [43]: 20.2%
inhibition [44]: 28.5%
inhibition [45]: 17.6%
